The record followed here is patent EP0603240B1, “SAFENING HERBICIDAL PYRAZOLYLSULFONYLUREAS” (priority 1991, dated 1993).

Data set [1] concerns corn. In words: Example 12, Procedure II: Herbicide No. 1 + acetochlor (No. 6) with thirteen antidotes. It is filed as in vivo. In short, it runs like this:
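Herbicide and antidote in acetone were mixed into silt loam used to cover the corn seed bed, alongside untreated and herbicide-only controls. After incorporation, an overhead irrigation equal to 0.6 cm rainfall was given, then sub-irrigation in a greenhouse. Injury was scored as percent; safening is the injury difference without versus with antidote.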

Data set [2] concerns corn. In words: Example 15, Procedure II: Herbicide No. 1 + butylate (No. 10) with antidotes. The data set is classed as in vivo. As for the experimental part: (§1) Containers were filled and compacted with a fumigated silt loam top soil to a depth of about 1.3 cm from the top of the container. A first container was designated as an untreated control, a second container was designated as a herbicide control, and a third container was designated as a herbicide + antidote test container. Each of the containers was seeded with a crop species. A measured amount of herbicide dispersed or dissolved in acetone was applied to a measured quantity of soil. To this same quantity of soil treated with herbicide, there was added a measured amount of antidote dispersed or dissolved in acetone. The quantity of soil treated with the herbicide and antidote was thoroughly mixed to incorporate the herbicide and antidote in the soil uniformly. The seed bed in the third container of soil was covered with the soil treated with the herbicide and antidote and the container was leveled. For each test series, the seed beds of the first and second containers were likewise covered by soil layers. the cover layer of the first container was not treated with herbicide or antidote.
(§2) The containers were then placed on a bench in a greenhouse and sub-irrigated as required for the duration of the test. […] Plant response is measured in terms of percent injury. Antidote efficacy is indicated as the difference in plant injury by the herbicide(s) without the antidote and with the antidote.
(§3) This procedure is the same as Procedure I, but modified in the manner that after incorporation of the chemicals (herbicide and antidote) the containers with the covered seedbed were treated with an initial overhead irrigation equivalent to 0.6 cm rainfall, then subsequently sub-irrigated as required on greenhouse benches.
This example describes experiments designed to investigate the antidotal efficacy of a plurality of antidotes against the herbicidal action of a combination of Herbicide No. 1 and butylate in corn and the prevalent weeds barnyardgrass and velvetleaf. The antidotes used in these experiments were Nos. 1-10, 12, 13 and 15.
The test procedure used in these experiments was that of Procedure II described above. The antidotes were applied to a soil cover layer by pipet after spraying the herbicides onto the soil, followed by incorporation and overhead irrigation.

Data set [3] has as its system corn. In words: Example 11, Procedure II: Herbicide No. 1 + metazachlor (No. 14) with antidotes. It is filed as in vivo. As for the experimental part:
as §1, §2, §3
In this example, yet another α-chloroacetanilide co-herbicide, metazachlor (Herbicide No. 14) was combined with Herbicide No. 1 for investigation of the effect of various safeners on that composition. Metazachlor is the active ingredient in the commercial herbicide BUTISAN® S, used here as a 500 g/L formulation.

Data set [4] concerns corn. In words: Example 25, greenhouse preemergence test: Antidote Nos. 1 and 2 against Herbicide Nos. 1-3. The conditions noted are these: Preemergence. It is filed as in vivo, Corn (Pioneer 3424 variety). As for the experimental part: The chemicals were tested in both preemergence and post-emergence modes of application. The herbicides were prepared and applied as wettable powders; dichlormid was applied as an emulsifiable concentrate, while the naphthalic anhydride was applied as a coating on the corn seed prior to planting.
Test data from the preemergence tests are shown in Table 25A and from the post-emergence tests in Table 25B. In the tables, the concentration of chemicals is shown in terms of active ingredient in grams per hectare (G/ha); concentrations of the naphthalic anhydride were not measured per se, but were present as in conventional, normally-coated applications. Corn injury is shown in terms of percent inhibition of growth.

Data set [5] concerns velvetleaf (Abutilon theophrasti). In words: Example 9, Procedure II: Herbicide No. 1 + pretilachlor (No. 13) with antidotes. It is filed as in vivo. As for the experimental part:
as §1, §2, §3
(§4) In the series of greenhouse tests described below, for routine screening purposes the herbicide/antidote compositions were tested in crop/weed combinations involving corn as the crop and either or both of the weeds barnyardgrass (Echinochloa crusgalli), a monocotyledonous weed, and velvetleaf (Abutilon theophrasti), a dicotyledonous weed. In the tables below, these weeds are indicated by the symbols "BYG" and "VL", respectively.
(§5) In this example the safening effect on a composition comprising Herbicide No. 1 and another leading rice herbicide, i.e., Herbicide No. 13, was investigated using the same antidotes and test procedure described in the preceding example. Herbicide No. 13 is pretilachlor, active ingredient used in the commercial rice herbicides RIFIT®, SOFIT® and SOFIT® SUPER.

In data set [6] the test system is barnyardgrass (Echinochloa crusgalli). The data set is described as above. It is filed as in vivo. As to the method: as §1, §2, §3, §4, §5
For data set [7], the system named is corn. In words: Example 10, Procedure II: Herbicide No. 1 + propachlor (No. 5) with antidotes. The data set is classed as in vivo. As to the method: as §1, §2, §3
In this test, the safening effect of various antidotes on the herbicidal combination of Herbicide No. 1 and another α-chloroacetanilide co-herbicide, propachlor, (Herbicide No. 5) was investigated. Propachlor is the active ingredient in the commercial herbicide RAMROD®. Procedure II was also used in this test as in the preceding example.

Setting [8] is: Herbicide No.1 0.14 kg/ha + Herbicide No.6 2.24 kg/ha, antidote rate 2.24 kg/ha.
The mark [9] stands for this setting: Herbicide No.1 0.14 kg/ha + Herbicide No.6 2.24 kg/ha, antidote rate 8.96 kg/ha.
The mark [10] stands for this setting: Herbicide No.1 0.56 kg/ha + Herbicide No.6 2.24 kg/ha, antidote rate 2.24 kg/ha.
Where [11] appears, read: Herbicide No.1 0.56 kg/ha + Herbicide No.6 2.24 kg/ha, antidote rate 8.96 kg/ha.
Where [12] appears, read: Herbicide No.1 0.56 kg/ha + Herbicide No.10 6.72 kg/ha, antidote rate 2.24 kg/ha.
[13] abbreviates: Herbicide No.1 0.56 kg/ha + Herbicide No.10 6.72 kg/ha, antidote rate 8.96 kg/ha.
The mark [14] stands for this setting: Herbicide No.1 1.12 kg/ha + Herbicide No.10 6.72 kg/ha, antidote rate 2.24 kg/ha.
Setting [15] is: Herbicide No.1 1.12 kg/ha + Herbicide No.10 6.72 kg/ha, antidote rate 8.96 kg/ha.
Setting [16] is: Herbicide No.1 0.56 kg/ha + Herbicide No.14 3.36 kg/ha, antidote rate 2.24 kg/ha.
The mark [17] stands for this setting: Herbicide No.1 0.56 kg/ha + Herbicide No.14 3.36 kg/ha, antidote rate 8.96 kg/ha.
The mark [18] stands for this setting: Herbicide No.1 1.12 kg/ha + Herbicide No.14 3.36 kg/ha, antidote rate 2.24 kg/ha.
Where [19] appears, read: Herbicide No.1 1.12 kg/ha + Herbicide No.14 3.36 kg/ha, antidote rate 8.96 kg/ha.
[20] abbreviates: Herbicide No.1 0.14 kg/ha + Herbicide No.13 2.24 kg/ha, antidote rate 2.24 kg/ha.
The mark [21] stands for this setting: Herbicide No.1 0.14 kg/ha + Herbicide No.13 2.24 kg/ha, antidote rate 8.96 kg/ha.
Setting [22] is: Herbicide No.1 0.56 kg/ha + Herbicide No.13 2.24 kg/ha, antidote rate 2.24 kg/ha.
[23] abbreviates: Herbicide No.1 0.56 kg/ha + Herbicide No.13 2.24 kg/ha, antidote rate 8.96 kg/ha.
Setting [24] is: Herbicide No.1 0.14 kg/ha + Herbicide No.5 4.48 kg/ha, antidote rate 2.24 kg/ha.
Setting [25] is: Herbicide No.1 0.14 kg/ha + Herbicide No.5 4.48 kg/ha, antidote rate 8.96 kg/ha.
Where [26] appears, read: Herbicide No.1 0.56 kg/ha + Herbicide No.5 4.48 kg/ha, antidote rate 2.24 kg/ha.
Where [27] appears, read: Herbicide No.1 0.56 kg/ha + Herbicide No.5 4.48 kg/ha, antidote rate 8.96 kg/ha.

As to `C=CCN(CC=C)C(=O)C(Cl)Cl` [compound 1], the “% Injury Corn” value in the data set with corn [1] (setting [8]) turned out to be 10%; in the data set with corn [1] (setting [9]), 10%; in the data set on corn [1] (setting [10]), 15%; in the data set on corn [1] (setting [11]) it was 15%; in the data set with corn [2] (setting [12]), 15%; in the data set on corn [2] (setting [13]) it was 10%. Also, the “% Injury Corn” value with corn [2] (setting [14]) was 20%; in the data set on corn [2] (setting [15]), 30%; in the data set with corn [3] (setting [16]), 25%; in the data set on corn [3] (setting [17]) it was 50%; with corn [3] (setting [18]) it was 45%; in the data set on corn [3] (setting [19]), 50%. Further, the “% Injury Corn” value in the data set with corn [7] (setting [24]) came out at 10%; in the data set on corn [7] (setting [25]) it was 0%; in the data set with corn [7] (setting [26]) it was 15%; in the data set with corn [7] (setting [27]), 0%. Besides, the “% Inhibition Corn” value is recorded as 23.2% with corn [4] (Herbicide No. 1 0.25 G/ha + antidote 7.41 G/ha); 28.4% with corn [4] (Herbicide No. 1 0.74 G/ha + antidote 7.41 G/ha); 26.2% in the data set with corn [4] (Herbicide No. 1 2.5 G/ha + antidote 7.41 G/ha); 26.5% in the data set on corn [4] (Herbicide No. 2 0.25 G/ha + antidote 7.41 G/ha); 28.9% in the data set with corn [4] (Herbicide No. 2 0.74 G/ha + antidote 7.41 G/ha); 37.3% in the data set with corn [4] (Herbicide No. 2 2.5 G/ha + antidote 7.41 G/ha). Besides, the results for the “% Inhibition Corn” value in the data set on corn [4] (Herbicide No. 3 0.07 G/ha + antidote 7.41 G/ha), with corn [4] (Herbicide No. 3 0.25 G/ha + antidote 7.41 G/ha) and in the data set with corn [4] (Herbicide No. 3 0.74 G/ha + antidote 7.41 G/ha) were 9.3%, 43.0% and 83.9%, respectively. Also, in the data set on corn [4] (Zea mays, pre-emergence, antidote alone 7.41 G/ha, no herbicide, read-out: % Inhibition Corn), the inhibition at 7.41 g/ha is 21%. Further, the “% Injury VL” value in data set [5] (setting [20]) worked out at 75%; in data set [5] (setting [21]) it was 75%; in data set [5] (setting [22]), 85%; in data set [5] (setting [23]), 85%. Moreover, the “% Injury BYG” value in data set [6] (setting [20]), in data set [6] (setting [21]), in data set [6] (setting [22]) and in data set [6] (setting [23]) was 100% each time.

Take `O=C1OC(=O)c2cccc3cccc1c23` [compound 2]: the “% Inhibition Corn” value was found to be 18.2% with corn [4] (Herbicide No. 1 0.25 G/ha + antidote as seed treatment (concentration not measured)); 31.2% with corn [4] (Herbicide No. 1 0.74 G/ha + antidote as seed treatment (concentration not measured)); 31.5% in the data set on corn [4] (Herbicide No. 2 0.25 G/ha + antidote as seed treatment (concentration not measured)); 18.9% in the data set on corn [4] (Herbicide No. 2 0.74 G/ha + antidote as seed treatment (concentration not measured)); 31.9% in the data set with corn [4] (Herbicide No. 2 2.5 G/ha + antidote as seed treatment (concentration not measured)); 13.2% in the data set with corn [4] (Herbicide No. 3 0.07 G/ha + antidote as seed treatment (concentration not measured)). Further, the “% Inhibition Corn” value with corn [4] (Herbicide No. 3 0.25 G/ha + antidote as seed treatment (concentration not measured)) came out at 29.3%; in the data set with corn [4] (Herbicide No. 3 0.74 G/ha + antidote as seed treatment (concentration not measured)), 46.9%; in the data set on corn [4] (antidote alone as seed treatment (concentration not measured), no herbicide) it was 17.4%. Further, the “% Injury VL” value in data set [5] (setting [20]) turned out to be 80%; in data set [5] (setting [21]) it was 75%; in data set [5] (setting [22]), 85%; in data set [5] (setting [23]) it was 80%. In addition, the “% Injury BYG” value in data set [6] (setting [20]), in data set [6] (setting [21]), in data set [6] (setting [22]) and in data set [6] (setting [23]) was 100% each time.

Take `O=C(C(Cl)Cl)N1CCOC12CCCCC2` [compound 7]: the “% Injury VL” value amounted to 80% in data set [5] (setting [20]), 75% in data set [5] (setting [21]), 85% in data set [5] (setting [22]) and 85% in data set [5] (setting [23]). The “% Injury BYG” value in data set [6] (setting [20]), in data set [6] (setting [21]), in data set [6] (setting [22]) and in data set [6] (setting [23]) was 100% throughout.

As to `CC1(C(Cl)Cl)OCCO1` [compound 13], the “% Injury Corn” value worked out at 10% in the data set on corn [1] (setting [8]); 30% with corn [1] (setting [9]); 35% with corn [1] (setting [10]); 40% in the data set on corn [1] (setting [11]); 10% with corn [2] (setting [12]); 15% in the data set with corn [2] (setting [13]). Moreover, the “% Injury Corn” value turned out to be 20% in the data set with corn [2] (setting [14]); 0% with corn [2] (setting [15]); 75% with corn [3] (setting [16]); 40% in the data set with corn [3] (setting [17]); 60% with corn [3] (setting [18]); 70% in the data set on corn [3] (setting [19]). For the same compound, the “% Injury Corn” value came out at 0% in the data set with corn [7] (setting [24]), 15% in the data set on corn [7] (setting [25]), 45% with corn [7] (setting [26]) and 10% with corn [7] (setting [27]). Also, the “% Injury VL” value was 70% in data set [5] (setting [20]), 75% in data set [5] (setting [21]), 90% in data set [5] (setting [22]) and 90% in data set [5] (setting [23]). Moreover, the “% Injury BYG” value in data set [6] (setting [20]), in data set [6] (setting [21]), in data set [6] (setting [22]) and in data set [6] (setting [23]) was 100% in each case.

Broadly, the inhibition is the share of the control response that was lost under treatment.
